From US7622479B2, “Bicyclic derivative, its production and use” (Takeda Pharmaceutical Company Limited, priority 2001, dated 2009) come the findings set out here.

The subject of assay [1] is normal human cell fibroblast MRC-5. Put plainly: Cell proliferation suppression test, normal cells MRC-5 (SRB staining). The assay is classed as cell-based. The following applies: MRC5, MRC-5 normal fibroblasts, incubated for 3 or 5 days, SRB protein staining, absorbance 550 nm, read-out: Cell proliferation inhibition (IC50; μM) MRC-5. The protocol: (§1) 100 μl of a suspension of HER2-expressing SK-BR-3 human breast cancer cells or 100 μl of BT-474 (2,000 cells) or 100 μl (4,000 cells) of a suspension of normal human cell fibroblast MRC-5 was sown in a 96-well microplate and cultured at 37° C. in a 5% carbonic acid gas incubator. On the following day, 100 μl of a solution of the test compound which had previously been diluted 2-fold, was added and the mixture was incubated for 3 or 5 days. The cells were fixed and washed with 5% glutaraldehyde solution and further fixed with 10% trichloroacetic acid solution, after which a 0.4% (W/V) SRB 0.4% (W/V) solution (dissolved in 1% acetic acid) was added to stain the cell protein. After the pigment solution was removed and the plate was washed with 1% acetic acid solution, 100 μl of extract (10 mM tris buffer solution) was added to extract the pigment; absorbance was measured at an absorption wavelength of 550 nm to quantify the amount of cells as protein content.
(§2) Taking the absorbance for the control group, which received no test compound solution, as 100% the ratio of the absorbance for each treatment group was determined, and the compound concentration required to achieve 50% suppression of the residual cell content relative to the control (IC50 value) was calculated.
A general note: Sulforhodamine B stains cellular protein and so reports cell mass.

The subject of assay [2] is HER2-expressing SK-BR-3 human breast cancer cells. Put plainly: Cell proliferation suppression test, SK-BR-3 (SRB staining). The class given is cell-based. The following applies: SK-BR-3 cells, incubated for 3 or 5 days, SRB protein staining, absorbance 550 nm, read-out: Cell proliferation inhibition (IC50; μM) SK-BR-3. The protocol:
as §1, §2

Assay [3] has as its system BT-474 human breast cancer cells. Put plainly: Cell proliferation suppression test, BT-474 (SRB staining). The class given is cell-based. The following applies: BT-474 cells, incubated for 3 or 5 days, SRB protein staining, absorbance 550 nm, read-out: Cell proliferation inhibition (IC50; μM) BT-474. The protocol:
as §1, §2

Assay [4] deals with BT-474 human cancer cells. Put plainly: Antitumor test in nude mouse model implanted with human cancer cells. The assay is classed as in vivo. The following applies: twice each day, for 14 days, nude BALB/c female mouse, BT-474 subcutaneous, tumor volume change vs Gelucire control. On the procedure:
1×10^7 BT-474 human cancer cells were suspended in Matrigel solution, and the suspension was subcutaneously transplanted to a nude BALB/c female mouse (5 weeks old). In order to enhance the take ratio of the tumor, an estrogen preparation was intramuscularly administered to a hind leg at plantation and 7 days after transplantation.
A Gelucire solution (0.3 or 1 mg/ml) of the compound of the present invention was orally administered at a dosage of 10 ml/kg, twice each day, for 14 days. During the first day and the last day that the administration was carried out, the tumor diameter was measured, and the tumor volume was calculated using the formula: tumor volume=major axis x minor axis x minor axis x(1/2). The T/C (%) was calculated as the ratio of the value obtained by subtracting the tumor volume on the last day of administration from the tumor volume on the first day of administration for the control group (to which only Gelucire was administered) and the value obtained by subtracting the tumor volume on the last day of administration from the tumor volume on the first day of administration for the treatment group.

Marks after values point to notes of the source that are not given here. Bounds are passed on as bounds.

`COc1cccc(-c2nc3cc(-c4ccccc4)cnc3[nH]2)c1` [Example 1, 2-(3-methoxyphenyl)-6-phenyl-1H-imidazo[4,5-b]pyridine]: the IC50 is greater than 25 µM in assay [1], 0.12 µM in assay [2] and 0.28 µM in assay [3]. Also, the “T/C(%) 3 mg/kg” value in assay [4] (3 mg/kg orally) is reported as 58* %. The “T/C(%) 10 mg/kg” value in assay [4] (10 mg/kg orally) is given as 31** %.

In the case of `COc1ccc(Cc2nc3cc(-c4ccco4)cnc3[nH]2)cc1OC` [Example 97, 2-(3,4-dimethoxybenzyl)-6-(2-furyl)-1H-imidazo[4,5-b]pyridine], the IC50 in assay [1] was greater than 25 µM; in assay [2] it was 0.94 µM; in assay [3], 0.49 µM.

Take `Clc1ccc(Cc2nc3cc(-c4ccco4)cnc3[nH]2)cc1` [Example 113, 2-(4-chlorobenzyl)-6-(2-furyl)-1H-imidazo[4,5-b]pyridine]: the results for the IC50 in assay [1], in assay [2] and in assay [3] were no less than 25 µM, 0.22 µM and 0.25 µM, respectively.

`COc1cccc(-c2nc3ncc(-c4ccccc4)cc3n2Cc2ccccc2O)c1` [Example 157, 2-[[2-(3-methoxyphenyl)-6-phenyl-1H-imidazo[4,5-b]pyridin-1-yl]methyl]phenol]: the IC50 in assay [1] is greater than 25 µM; in assay [2], 0.23 µM; in assay [3] it was 0.19 µM.

As for `COc1cccc(-c2nc3ncc(-c4ccccc4)cc3n2CC2CC2)c1` [Example 202, 1-(cyclopropylmethyl)-2-(3-methoxyphenyl)-6-phenyl-1H-imidazo[4,5-b]pyridine], the IC50 in assay [1] is 21 µM; in assay [2], 0.55 µM; in assay [3] it was 1.1 µM.

With `Fc1ccc(/C=C/c2nc3cc(-c4ccco4)ccc3o2)c(F)c1` [Example 219, 2-[(E)-2-(2,4-difluorophenyl)ethenyl]-5-(2-furyl)benzoxazole], the IC50 was greater than 25 µM in assay [1], 0.14 µM in assay [2] and 0.83 µM in assay [3].
